{"source": "patent US20050238581A1", "about": "“Dynamic hepatic recycling glucose tolerance test” (priority 2002, published 2005)", "key": {"[1]": {"experiment": "intraperitoneal hepatic recycling glucose tolerance test (HRGTT) with [1, 2-^13C2]-glucose load", "assay_type": "in vivo, C57BL6 mice", "details": "for decrease in total amount of M2 glucose: compared to amount appearing in plasma between 0-60 minutes", "method": "Stable isotopes of the M2 isotopomer glucose was administered at 1 mg glucose/gm body weight by intraperitoneal injection. Animals were euthanized by an overdose of isoflurane anesthesia, and tissue from liver and skeletal muscle were rapidly dissected free, snap-frozen in liquid nitrogen, and stored at −80° C. until processed for isolation of RNA or glycogen. Cytosolic protein was extracted from the liver tissue after homogenization with 10 strikes in lysis buffer containing 0.25 M sucrose, I OmM Tris-HCL(pH7.4), 3 mM MgCL2, 0.1 mM PMSF, 20 mM NaF, 1 mM Na3VO4, 1 MM Na4P207, 1 μg/ml of leupeptin/aprotinin/pepstatin. The resulting cell lysate was filtered with 4 layers of cheesecloth. Nuclei were pelleted by centrifugation at 1000 g for 10 min. Mitochondria were precipitated by centrifugation at 15,000 g for 20 min from the supernatant. The cytosolic fraction was isolated as the supernatant obtained from last ultra-centrifugation at 100,000 g at 4° C. for 1 hr. Protein concentration from cytosol were measured by using an absorbance at 595 run (BCA kit from Pierce). 60 1 μg of protein extracts from cytosol were separated by 10% SDS-PAGE. The membrane blots were incubated with anti-GK at 1:2500 (v/v), anti-G6PDH at 1:2000 (v/v), anti-PEPCK at 1:500 (v/v), and anti-p-actin at 1:2000 (v/v), for either 1 hr in western washing buffer at RT or overnight at 4 C after blocking. The blots were hybridized with secondary antibodies coupled to horseradish peroxidase for 40 to 60 min at RT. Immunodetection was accomplished using enhanced chemiluminescence. Density of each band was determined by scanning the exposed film. The time course of glucose and lactate isotopomers in plasma, and glucose isotopomers in liver glycogen was determined using gas chromatography/mass spectrometry. The M1 glucose isotopomer, in which ^13C glucose can occupy the carbon 1 position, was produced via the action of the oxidative limb of the pentose phosphate pathway (PPP) on the administered M2 glucose isotopomer, and its re-entry into the gluconeogenic pathway via the non-oxidative limb of the PPP. The absorption of administered glucose was monitored by the time course of M2 isotopomer, and hepatic glucose recycling by the time course of M1 isotopomer of glucose."}, "[2]": {"experiment": "[1, 2-^13C2]-glucose HR-GTT in C57BL/6 and PPARα KO mice", "assay_type": "in vivo, C57BL/6 mice and PPARα KO mice", "details": "for glucose recycling rate constant (kHR), slope of M1/M2 ratio against time: regression analysis", "method": "Wild-type (C57BL/6) mice and PPARα KO mice were obtained. In this example, glucose was labeled with either stable isotopes of [1, 2-^13C2]-glucose, or [2-^2H]- and [6, 6-^2H2]-glucose and all isotopes were 99% enriched. The [1, 2-^13C2]-glucose, or a 1:1 mixture of [2-^2H]- and [6, 6-^2H2]-glucose, was then administered at 1 mg glucose/gm body weight by intraperitoneal injection. Blood was sampled at 0, 0.5, 1, 2, and 3 hours for [1, 2-^13C2]-glucose isotopomer analysis, and 0.5, 1 and 2 hours for deuterated glucose isotopomer analysis. Plasma glucose and lactate concentrations were determined by the use of a COBAS MIRA analyzer. All isotopomeric determinations were performed on a Hewlett Packard Mass Selective Detector (model 5973A) connected to an HP Gas Chromatograph (model 6890) using chemical ionization (CI) with 20% methane. The re-cycling of hepatic glucose, leading to the appearance of M1 glucose in blood, occurs when the glucose traverses the glucose<->G-6-P, pentose phosphate pathway, and possibly the TCA cycle. […] The slope of the increase in this ratio gives the in vivo glucose dependent futile re-cycling rate constant of glucose through G-6-P."}}, "data": [{"smiles": "OC[C@H]1OC(O)[C@H](O)[C@@H](O)[C@@H]1O", "note": "(stereo partly shown) [[1,2-^13C2]-glucose]", "values": [{"measurement": "decrease in total amount of M2 glucose", "setting": "[1]; 60-120 minutes", "value": 30, "unit": "%"}, {"measurement": "decrease in total amount of M2 glucose", "setting": "[1]; 120-180 minutes", "value": 65, "unit": "%"}, {"measurement": "plasma M2 enrichment after steady decline", "setting": "[1]; after the first 60 minutes, ip 1 mg/gm", "value": "20.1±1.3", "unit": "%"}, {"measurement": "enrichment of [1, 2-^13C2]-glucose (M2) in the plasma glucose pool", "setting": "[1]; enrichment rapidly achieved after ip injection of 1 mg/gm body weight", "value": "55±1.0", "unit": "%"}, {"measurement": "contribution of direct pathway from glucose uptake to glycogen glucose deposited", "setting": "[1]; glucose load 1 mg glucose/g body weight", "value": "less than 5%"}, {"measurement": "M2 isotopomer enrichment in liver glycogen glucose, start of decrease", "setting": "[1]; liver glycogen, earlier time (2 hours)", "value": 1.9, "unit": "%"}, {"measurement": "M2 isotopomer enrichment in liver glycogen glucose, end of decrease", "setting": "[1]; liver glycogen, later time (3 hours)", "value": 0.8, "unit": "%"}, {"measurement": "glucose recycling rate constant (kHR), slope of M1/M2 ratio against time", "setting": "[2]; C57BL/6 mice", "value": "0.1086 ± 0.0049", "unit": "per hour"}, {"measurement": "glucose recycling rate constant (kHR), slope of M1/M2 ratio against time", "setting": "[2]; PPARα KO mice, p<0.025 vs C57BL/6", "value": "0.0790 ± 0.0064", "unit": "per hour"}, {"measurement": "fall in plasma M2 levels, faster in PPARα KO than in C57BL/6 (overall glucose clearance)", "setting": "[2]; between 0.5 hours and 3.0 hours, p<0.001", "value": 32, "unit": "%"}]}]}
